From ChEMBL document CHEMBL5465560, “Selectivity Literature for EUbOPEN Chemogenomic Library” (2024)

Columns and labels:
[1] = molecular target: Cyclin-dependent kinase 8 (Homo sapiens, UniProt P49336); experiment: Selectivity interaction (KinomeScan (DiscoverX)) EUB0001049a CDK8; settings: at 1 µM
[2] = molecular target: T1, Serine/threonine-protein kinase Chk1 (Homo sapiens) (UniProt O14757); experiment: Selectivity interaction (KinomeScan (DiscoverX)) EUB0001049a CHEK1; settings: at 1 µM
T1 sequence (whole entry): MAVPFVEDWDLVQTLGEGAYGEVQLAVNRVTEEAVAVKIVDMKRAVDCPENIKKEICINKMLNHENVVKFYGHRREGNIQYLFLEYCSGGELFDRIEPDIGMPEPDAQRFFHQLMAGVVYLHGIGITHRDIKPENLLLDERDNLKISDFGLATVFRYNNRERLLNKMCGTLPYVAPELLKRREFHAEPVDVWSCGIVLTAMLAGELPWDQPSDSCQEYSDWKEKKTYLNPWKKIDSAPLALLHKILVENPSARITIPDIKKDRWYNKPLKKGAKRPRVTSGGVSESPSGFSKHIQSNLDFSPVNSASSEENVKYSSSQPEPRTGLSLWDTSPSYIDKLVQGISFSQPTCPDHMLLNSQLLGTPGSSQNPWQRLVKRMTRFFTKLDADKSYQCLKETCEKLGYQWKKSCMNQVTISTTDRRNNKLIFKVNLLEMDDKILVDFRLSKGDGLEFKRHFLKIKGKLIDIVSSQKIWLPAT

[3] = molecular target: T2, Serine/threonine-protein kinase Nek3 (Homo sapiens) (UniProt P51956); experiment: Selectivity interaction (Ambit KINOMEscan and KiNATiv profiling in Jurkat cells) EUB0000090b NEK3; type: cell-based; settings: at 1 µM
T2 sequence (whole entry): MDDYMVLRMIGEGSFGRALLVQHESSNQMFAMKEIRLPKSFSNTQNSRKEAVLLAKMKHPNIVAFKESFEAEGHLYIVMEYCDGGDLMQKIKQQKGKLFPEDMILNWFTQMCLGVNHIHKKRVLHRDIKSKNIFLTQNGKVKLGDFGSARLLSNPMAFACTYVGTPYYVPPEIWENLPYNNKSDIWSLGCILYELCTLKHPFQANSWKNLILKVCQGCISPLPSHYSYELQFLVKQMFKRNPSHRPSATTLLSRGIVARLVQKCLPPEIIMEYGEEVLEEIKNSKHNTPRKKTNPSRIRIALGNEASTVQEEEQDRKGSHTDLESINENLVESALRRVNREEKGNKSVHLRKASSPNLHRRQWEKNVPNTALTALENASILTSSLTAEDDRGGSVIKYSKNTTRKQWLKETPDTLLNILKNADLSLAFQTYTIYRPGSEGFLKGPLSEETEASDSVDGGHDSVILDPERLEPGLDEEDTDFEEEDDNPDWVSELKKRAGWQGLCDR

[4] = molecular target: T3, Serine/threonine-protein kinase ULK2 (Homo sapiens) (UniProt Q8IYT8); experiment: Selectivity interaction (KinomeScan (DiscoverX)) EUB0000595a ULK2; settings: at 10 µM
T3 sequence (whole entry): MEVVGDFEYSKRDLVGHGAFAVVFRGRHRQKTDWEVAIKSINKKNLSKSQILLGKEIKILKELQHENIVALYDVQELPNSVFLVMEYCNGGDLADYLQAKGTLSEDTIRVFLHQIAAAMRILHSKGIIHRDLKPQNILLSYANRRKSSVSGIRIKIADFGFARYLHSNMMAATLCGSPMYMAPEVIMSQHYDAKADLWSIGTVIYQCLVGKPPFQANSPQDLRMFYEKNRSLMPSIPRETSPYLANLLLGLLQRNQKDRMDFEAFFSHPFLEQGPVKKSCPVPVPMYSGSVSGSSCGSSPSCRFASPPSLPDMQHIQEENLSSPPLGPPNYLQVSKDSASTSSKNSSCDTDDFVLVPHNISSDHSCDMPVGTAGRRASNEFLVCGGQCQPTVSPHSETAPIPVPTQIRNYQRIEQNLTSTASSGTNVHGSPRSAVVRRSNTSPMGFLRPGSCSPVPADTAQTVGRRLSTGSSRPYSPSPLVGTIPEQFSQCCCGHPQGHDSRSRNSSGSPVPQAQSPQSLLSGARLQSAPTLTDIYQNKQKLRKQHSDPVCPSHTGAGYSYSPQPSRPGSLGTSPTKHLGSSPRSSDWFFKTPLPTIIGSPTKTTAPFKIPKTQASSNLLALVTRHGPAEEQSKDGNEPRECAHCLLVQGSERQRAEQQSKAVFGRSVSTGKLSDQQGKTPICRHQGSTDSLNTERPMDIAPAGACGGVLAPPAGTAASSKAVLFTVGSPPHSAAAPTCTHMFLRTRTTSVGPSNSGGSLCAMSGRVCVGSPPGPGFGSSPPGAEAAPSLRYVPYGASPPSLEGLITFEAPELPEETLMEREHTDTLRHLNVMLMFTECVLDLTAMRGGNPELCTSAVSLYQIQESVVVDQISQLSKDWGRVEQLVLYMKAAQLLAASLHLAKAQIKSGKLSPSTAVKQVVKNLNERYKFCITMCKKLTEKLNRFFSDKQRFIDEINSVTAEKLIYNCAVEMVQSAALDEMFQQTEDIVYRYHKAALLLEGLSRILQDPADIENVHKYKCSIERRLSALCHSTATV

[5] = molecular target: Atypical kinase COQ8A, mitochondrial (Homo sapiens, UniProt Q8NI60); experiment: Selectivity interaction (KinomeScan (DiscoverX)) EUB0000092b ADCK3; settings: at 10 µM
[6] = molecular target: Protein kinase C delta type (Homo sapiens) (UniProt Q05655); experiment: Selectivity interaction (KinomeScan (DiscoverX)) EUB0000607a PRKCD; settings: at 10 µM
[7] = molecular target: Bone morphogenetic protein receptor type-1B (Homo sapiens, UniProt O00238); experiment: Selectivity interaction (KinomeScan (DiscoverX)) EUB0000607a BMPR1B; settings: at 10 µM
[8] = molecular target: T4, Dual specificity mitogen-activated protein kinase kinase 6 (Homo sapiens) (UniProt P52564); experiment: Selectivity interaction (Kinase panel (KiNativ target engagement assay in Jurkat cells)) EUB0001635a MAP2K6; type: cell-based; settings: Selectivity number of off-targets 0.0, Selectivity number of targets 233.0, Source Knowledge https://www.sciencedirect.com/science/article/pii/S2451945619300674?via%3Dihub, at 1 µM
T4 sequence (whole entry): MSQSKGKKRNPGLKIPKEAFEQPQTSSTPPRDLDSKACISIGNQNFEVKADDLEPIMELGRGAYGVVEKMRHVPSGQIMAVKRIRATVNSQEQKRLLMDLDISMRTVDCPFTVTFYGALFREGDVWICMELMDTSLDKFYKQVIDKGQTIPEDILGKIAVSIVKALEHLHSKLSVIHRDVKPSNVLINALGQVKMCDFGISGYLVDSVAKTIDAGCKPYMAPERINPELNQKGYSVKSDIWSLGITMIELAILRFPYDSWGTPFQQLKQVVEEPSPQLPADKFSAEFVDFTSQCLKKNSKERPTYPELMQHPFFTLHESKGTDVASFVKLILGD

Chain of Atypical kinase COQ8A, mitochondrial (Q8NI60 163-647 limits assumed): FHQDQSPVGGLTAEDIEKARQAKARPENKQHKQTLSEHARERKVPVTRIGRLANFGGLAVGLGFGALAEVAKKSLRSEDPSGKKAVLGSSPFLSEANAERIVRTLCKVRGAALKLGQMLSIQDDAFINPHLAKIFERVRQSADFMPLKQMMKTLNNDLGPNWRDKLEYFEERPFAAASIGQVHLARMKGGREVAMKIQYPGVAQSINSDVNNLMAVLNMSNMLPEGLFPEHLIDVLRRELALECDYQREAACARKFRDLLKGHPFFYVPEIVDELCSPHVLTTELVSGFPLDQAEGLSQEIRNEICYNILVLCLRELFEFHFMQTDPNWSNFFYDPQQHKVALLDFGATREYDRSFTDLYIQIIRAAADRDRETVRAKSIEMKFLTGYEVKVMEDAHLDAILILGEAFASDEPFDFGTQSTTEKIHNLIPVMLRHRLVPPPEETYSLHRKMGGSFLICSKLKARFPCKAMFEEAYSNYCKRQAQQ
Chain of Cyclin-dependent kinase 8 (P49336 whole entry): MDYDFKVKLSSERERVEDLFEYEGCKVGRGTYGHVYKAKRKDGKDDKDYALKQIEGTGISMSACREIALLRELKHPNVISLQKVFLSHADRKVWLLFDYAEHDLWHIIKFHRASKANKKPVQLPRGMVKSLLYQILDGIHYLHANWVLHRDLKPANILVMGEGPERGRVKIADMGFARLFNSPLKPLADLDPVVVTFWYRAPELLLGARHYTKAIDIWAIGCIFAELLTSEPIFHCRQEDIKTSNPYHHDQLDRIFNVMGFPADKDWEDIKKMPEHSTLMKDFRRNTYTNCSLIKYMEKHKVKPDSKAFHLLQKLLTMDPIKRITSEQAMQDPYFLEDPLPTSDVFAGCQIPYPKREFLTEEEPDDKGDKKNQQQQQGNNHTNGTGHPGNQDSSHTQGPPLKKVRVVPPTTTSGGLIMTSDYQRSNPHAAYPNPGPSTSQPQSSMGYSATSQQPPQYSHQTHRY
Chain of Bone morphogenetic protein receptor type-1B (O00238 whole entry): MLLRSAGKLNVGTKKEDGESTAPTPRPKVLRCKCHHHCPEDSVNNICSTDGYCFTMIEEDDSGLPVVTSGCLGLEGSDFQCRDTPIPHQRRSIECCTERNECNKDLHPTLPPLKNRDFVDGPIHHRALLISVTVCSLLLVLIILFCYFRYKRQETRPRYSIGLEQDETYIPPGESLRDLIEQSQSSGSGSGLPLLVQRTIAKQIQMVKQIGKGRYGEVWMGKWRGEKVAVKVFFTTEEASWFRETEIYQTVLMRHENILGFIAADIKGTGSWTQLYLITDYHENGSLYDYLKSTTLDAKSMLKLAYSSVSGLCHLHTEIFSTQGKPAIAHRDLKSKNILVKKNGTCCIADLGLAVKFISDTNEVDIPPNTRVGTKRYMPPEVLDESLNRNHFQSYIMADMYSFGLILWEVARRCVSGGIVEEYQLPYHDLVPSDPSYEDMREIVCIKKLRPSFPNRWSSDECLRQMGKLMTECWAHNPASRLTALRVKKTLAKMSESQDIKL
Chain of Protein kinase C delta type (Homo sapiens) (Q05655 whole entry, looked up): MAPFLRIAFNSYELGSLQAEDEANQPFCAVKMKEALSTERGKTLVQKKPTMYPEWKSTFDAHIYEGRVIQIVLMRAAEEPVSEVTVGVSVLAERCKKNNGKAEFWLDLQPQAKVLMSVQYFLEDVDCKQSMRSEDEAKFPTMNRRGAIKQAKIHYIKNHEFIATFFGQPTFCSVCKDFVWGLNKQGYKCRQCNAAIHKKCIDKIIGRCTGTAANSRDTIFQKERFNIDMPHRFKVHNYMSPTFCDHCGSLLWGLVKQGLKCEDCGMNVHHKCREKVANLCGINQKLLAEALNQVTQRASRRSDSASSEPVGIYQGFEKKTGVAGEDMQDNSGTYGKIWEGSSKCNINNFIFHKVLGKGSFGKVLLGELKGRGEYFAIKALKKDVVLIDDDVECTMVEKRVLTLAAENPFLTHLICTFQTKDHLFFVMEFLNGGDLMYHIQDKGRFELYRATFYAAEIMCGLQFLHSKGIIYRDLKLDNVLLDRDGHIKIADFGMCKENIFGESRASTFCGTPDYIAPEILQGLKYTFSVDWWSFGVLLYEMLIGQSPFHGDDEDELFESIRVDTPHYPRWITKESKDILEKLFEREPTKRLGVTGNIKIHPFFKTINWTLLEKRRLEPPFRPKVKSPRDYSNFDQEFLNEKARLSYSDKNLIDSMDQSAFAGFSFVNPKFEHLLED

COc1cc(Nc2nc(C)cc(-c3cnn4nc(OC)ccc34)n2)cc(C(F)(F)F)c1
% of control [1]: 100% | % of control [2]: 97%

CN(C)C/C=C/C(=O)Nc1ccc(C(=O)N2CCCC(Nc3ncc(Cl)c(-c4c[nH]c5ccccc45)n3)C2)cc1 (stereo not drawn)
% of control [3]: 88%

COCC(=O)NC/C=C/c1ccc2ncnc(Nc3ccc(Oc4ccc(C)nc4)c(C)c3)c2c1 [CP-724714]
% of control [4]: 100%

CCC(=O)N1CCN(c2ccc(-n3c(=O)ccc4cnc5ccc(-c6cnc7ccccc7c6)cc5c43)cc2C(F)(F)F)CC1
% of control [5]: 17%

CNC(=O)Nc1ccc(-c2nc(N3CC4CCC(C3)O4)c3cnn(C4CCC5(CC4)OCCO5)c3n2)cc1
% of control [6]: 100% | % of control [7]: 93%

C=CC(=O)Nc1ccc(C(=O)Nc2[nH]nc3c2CN(C(=O)N[C@H](CN(C)C)c2ccccc2)C3(C)C)cc1
% of engagement [8]: -2.9%
